Assay results: the kinase profiling compilation of Christmann-Franck et al. (2016)

Tests used:
Experiment in all cases: KINOMEscan competition binding
Conditions in all cases: compound 10.0 µM
SIK2 (human) = SIK2 (human) (UniProt Q9H0K1)
NIM1 (human) = NIM1 (human) (UniProt Q8IY84)
MAPK12 (human) = MAPK12 (human) (UniProt P53778)
MAST1 (human) = MAST1 (human) (UniProt Q9Y2H9)
FGFR2 (human) = FGFR2 (human) (UniProt P21802)
PIP4K2C (human) = PIP4K2C (human) (UniProt Q8TBX8)
STK33 (human) = STK33 (human) (UniProt Q9BYT3)
CSNK1D (human) = CSNK1D (human) (UniProt P48730)
SYK (human) = SYK (human) (UniProt P43405)
TNNI3K (human) = TNNI3K (human) (UniProt Q59H18)
FYN (human) = FYN (human) (UniProt P06241)
Chain of FYN (human) (P06241 whole entry, looked up): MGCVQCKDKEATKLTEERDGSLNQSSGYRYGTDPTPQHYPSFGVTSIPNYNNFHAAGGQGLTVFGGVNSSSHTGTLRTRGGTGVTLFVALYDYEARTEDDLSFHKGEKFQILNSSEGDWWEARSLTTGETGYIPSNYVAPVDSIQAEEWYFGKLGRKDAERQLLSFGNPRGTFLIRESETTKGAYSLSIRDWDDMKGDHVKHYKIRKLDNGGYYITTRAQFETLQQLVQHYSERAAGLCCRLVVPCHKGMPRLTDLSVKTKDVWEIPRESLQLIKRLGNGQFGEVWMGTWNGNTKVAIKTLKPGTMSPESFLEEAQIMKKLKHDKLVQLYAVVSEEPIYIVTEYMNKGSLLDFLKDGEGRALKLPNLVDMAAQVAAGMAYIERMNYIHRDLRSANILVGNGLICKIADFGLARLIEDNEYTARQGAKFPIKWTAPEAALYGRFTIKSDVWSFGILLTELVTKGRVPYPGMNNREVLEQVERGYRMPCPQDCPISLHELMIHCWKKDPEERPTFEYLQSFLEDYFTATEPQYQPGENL

PRKACB (human) = PRKACB (human) (UniProt P22694)
DCLK2 (human) = DCLK2 (human) (UniProt Q8N568)
WEE2 (human) = WEE2 (human) (UniProt P0C1S8)
AXL (human) = AXL (human) (UniProt P30530)
Chain of AXL (human) (P30530 whole entry, looked up): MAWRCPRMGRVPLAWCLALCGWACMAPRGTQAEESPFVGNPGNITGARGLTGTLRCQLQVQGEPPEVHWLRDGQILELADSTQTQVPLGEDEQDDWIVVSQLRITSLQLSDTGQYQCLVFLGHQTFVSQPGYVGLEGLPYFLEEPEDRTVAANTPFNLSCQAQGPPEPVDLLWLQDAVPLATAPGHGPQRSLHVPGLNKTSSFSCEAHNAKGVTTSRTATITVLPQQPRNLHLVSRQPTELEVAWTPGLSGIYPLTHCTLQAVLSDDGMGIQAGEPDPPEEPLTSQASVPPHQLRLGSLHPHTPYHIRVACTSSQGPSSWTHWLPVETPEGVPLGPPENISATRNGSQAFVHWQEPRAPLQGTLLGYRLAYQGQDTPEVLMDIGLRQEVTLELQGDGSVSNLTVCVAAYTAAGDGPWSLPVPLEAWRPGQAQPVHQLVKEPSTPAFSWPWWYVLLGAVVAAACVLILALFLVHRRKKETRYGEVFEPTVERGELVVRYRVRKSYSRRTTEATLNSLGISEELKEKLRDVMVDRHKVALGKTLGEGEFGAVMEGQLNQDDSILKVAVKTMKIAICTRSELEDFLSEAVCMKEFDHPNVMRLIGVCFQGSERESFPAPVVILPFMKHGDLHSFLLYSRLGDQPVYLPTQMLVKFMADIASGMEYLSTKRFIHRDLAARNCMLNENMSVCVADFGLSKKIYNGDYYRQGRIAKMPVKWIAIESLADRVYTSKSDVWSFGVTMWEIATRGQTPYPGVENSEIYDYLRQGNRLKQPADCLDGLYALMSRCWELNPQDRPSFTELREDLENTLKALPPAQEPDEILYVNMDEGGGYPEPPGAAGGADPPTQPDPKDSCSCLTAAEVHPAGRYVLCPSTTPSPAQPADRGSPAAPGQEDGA

PLK2 (human) = PLK2 (human) (UniProt Q9NYY3)
Chain of PLK2 (human) (Q9NYY3 whole entry, looked up): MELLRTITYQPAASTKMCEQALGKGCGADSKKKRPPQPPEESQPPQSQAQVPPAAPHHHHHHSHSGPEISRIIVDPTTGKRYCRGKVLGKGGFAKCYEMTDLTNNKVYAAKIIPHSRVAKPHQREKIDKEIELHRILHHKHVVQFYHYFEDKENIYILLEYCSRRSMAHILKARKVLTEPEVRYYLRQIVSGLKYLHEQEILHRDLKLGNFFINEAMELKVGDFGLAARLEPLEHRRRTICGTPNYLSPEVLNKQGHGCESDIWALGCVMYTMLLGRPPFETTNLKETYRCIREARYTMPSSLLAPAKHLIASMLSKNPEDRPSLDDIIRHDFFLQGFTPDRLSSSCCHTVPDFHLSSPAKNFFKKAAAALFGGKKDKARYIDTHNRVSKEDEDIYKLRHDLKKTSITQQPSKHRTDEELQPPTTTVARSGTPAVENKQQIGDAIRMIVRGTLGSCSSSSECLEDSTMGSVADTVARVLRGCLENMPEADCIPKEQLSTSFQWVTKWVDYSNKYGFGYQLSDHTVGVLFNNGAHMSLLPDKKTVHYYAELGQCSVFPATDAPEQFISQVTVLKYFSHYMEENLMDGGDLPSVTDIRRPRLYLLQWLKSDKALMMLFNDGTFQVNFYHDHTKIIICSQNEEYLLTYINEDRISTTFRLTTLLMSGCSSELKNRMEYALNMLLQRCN

ULK3 (human) = ULK3 (human) (UniProt Q6PHR2)
PIK3C2B (human) = PIK3C2B (human) (UniProt O00750)
ERBB3 (human) = ERBB3 (human) (UniProt P21860)
TESK1 (human) = TESK1 (human) (UniProt Q15569)
PTK6 (human) = PTK6 (human) (UniProt Q13882)
MYO3B (human) = MYO3B (human) (UniProt Q8WXR4)
[1] = test system: LRRK2 (human), Q5S007 [G2019S]
MAP3K13 (human) = MAP3K13 (human) (UniProt O43283)
Chain of MAP3K13 (human) (O43283 whole entry, looked up): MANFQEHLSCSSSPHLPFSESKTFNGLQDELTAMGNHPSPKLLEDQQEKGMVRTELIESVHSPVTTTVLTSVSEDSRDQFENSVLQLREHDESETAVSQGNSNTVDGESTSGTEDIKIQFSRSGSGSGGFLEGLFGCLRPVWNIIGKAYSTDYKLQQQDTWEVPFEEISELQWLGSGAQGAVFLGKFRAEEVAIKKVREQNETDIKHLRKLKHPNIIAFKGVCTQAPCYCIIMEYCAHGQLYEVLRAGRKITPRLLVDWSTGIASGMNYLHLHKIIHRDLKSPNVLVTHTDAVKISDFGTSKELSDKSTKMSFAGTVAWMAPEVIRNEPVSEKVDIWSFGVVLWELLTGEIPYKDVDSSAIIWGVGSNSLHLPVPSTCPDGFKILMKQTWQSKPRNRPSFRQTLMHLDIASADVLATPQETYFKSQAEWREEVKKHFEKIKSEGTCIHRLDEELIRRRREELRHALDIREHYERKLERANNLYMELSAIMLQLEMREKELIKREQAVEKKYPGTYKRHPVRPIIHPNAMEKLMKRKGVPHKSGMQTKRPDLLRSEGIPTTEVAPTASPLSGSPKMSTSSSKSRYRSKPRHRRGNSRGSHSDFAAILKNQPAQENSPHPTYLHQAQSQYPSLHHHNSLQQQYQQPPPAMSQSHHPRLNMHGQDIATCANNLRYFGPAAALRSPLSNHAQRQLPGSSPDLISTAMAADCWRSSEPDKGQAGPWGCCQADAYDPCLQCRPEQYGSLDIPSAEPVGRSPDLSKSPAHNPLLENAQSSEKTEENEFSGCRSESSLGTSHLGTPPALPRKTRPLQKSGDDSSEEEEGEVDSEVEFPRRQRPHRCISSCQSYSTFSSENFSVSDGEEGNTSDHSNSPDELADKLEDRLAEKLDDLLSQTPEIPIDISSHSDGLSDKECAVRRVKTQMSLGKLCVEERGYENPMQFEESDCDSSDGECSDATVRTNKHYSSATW

CHEK2 (human) = CHEK2 (human) (UniProt O96017)
MST1R (human) = MST1R (human) (UniProt Q04912)
HIPK3 (human) = HIPK3 (human) (UniProt Q9H422)
Chain of HIPK3 (human) (Q9H422 whole entry, looked up): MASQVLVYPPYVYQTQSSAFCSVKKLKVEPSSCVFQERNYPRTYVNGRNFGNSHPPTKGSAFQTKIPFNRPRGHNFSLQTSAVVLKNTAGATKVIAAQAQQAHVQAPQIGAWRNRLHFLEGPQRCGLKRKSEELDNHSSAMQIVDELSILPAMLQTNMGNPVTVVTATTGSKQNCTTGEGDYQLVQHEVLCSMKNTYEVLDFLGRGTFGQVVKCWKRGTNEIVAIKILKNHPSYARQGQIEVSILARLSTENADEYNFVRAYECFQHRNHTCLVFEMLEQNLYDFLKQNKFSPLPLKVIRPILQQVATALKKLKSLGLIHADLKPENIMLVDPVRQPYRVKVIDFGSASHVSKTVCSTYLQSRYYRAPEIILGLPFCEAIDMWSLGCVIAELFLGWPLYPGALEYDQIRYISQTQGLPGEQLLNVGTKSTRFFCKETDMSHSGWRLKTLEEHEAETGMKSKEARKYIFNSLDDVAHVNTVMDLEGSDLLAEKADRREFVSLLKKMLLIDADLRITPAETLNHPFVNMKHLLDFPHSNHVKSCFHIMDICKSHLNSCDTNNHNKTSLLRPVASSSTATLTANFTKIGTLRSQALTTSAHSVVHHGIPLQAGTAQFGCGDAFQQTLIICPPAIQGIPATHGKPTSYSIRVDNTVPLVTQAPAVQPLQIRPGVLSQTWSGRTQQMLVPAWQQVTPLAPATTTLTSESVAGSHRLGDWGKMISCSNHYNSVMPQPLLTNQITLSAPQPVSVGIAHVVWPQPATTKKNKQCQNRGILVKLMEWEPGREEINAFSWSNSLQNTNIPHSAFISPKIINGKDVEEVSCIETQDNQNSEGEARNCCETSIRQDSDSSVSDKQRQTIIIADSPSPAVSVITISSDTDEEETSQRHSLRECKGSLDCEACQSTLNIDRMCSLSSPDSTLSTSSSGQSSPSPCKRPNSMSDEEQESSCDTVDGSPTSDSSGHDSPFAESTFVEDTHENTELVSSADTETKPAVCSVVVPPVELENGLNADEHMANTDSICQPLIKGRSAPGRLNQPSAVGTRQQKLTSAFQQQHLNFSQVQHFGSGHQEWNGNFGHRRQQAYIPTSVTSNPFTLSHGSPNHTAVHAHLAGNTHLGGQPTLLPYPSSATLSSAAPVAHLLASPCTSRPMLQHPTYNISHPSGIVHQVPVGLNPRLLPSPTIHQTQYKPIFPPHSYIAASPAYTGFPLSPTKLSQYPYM

PRKAA2 (human) = PRKAA2 (human) (UniProt P54646)
STK17A (human) = STK17A (human) (UniProt Q9UEE5)
Chain of STK17A (human) (Q9UEE5 whole entry, looked up): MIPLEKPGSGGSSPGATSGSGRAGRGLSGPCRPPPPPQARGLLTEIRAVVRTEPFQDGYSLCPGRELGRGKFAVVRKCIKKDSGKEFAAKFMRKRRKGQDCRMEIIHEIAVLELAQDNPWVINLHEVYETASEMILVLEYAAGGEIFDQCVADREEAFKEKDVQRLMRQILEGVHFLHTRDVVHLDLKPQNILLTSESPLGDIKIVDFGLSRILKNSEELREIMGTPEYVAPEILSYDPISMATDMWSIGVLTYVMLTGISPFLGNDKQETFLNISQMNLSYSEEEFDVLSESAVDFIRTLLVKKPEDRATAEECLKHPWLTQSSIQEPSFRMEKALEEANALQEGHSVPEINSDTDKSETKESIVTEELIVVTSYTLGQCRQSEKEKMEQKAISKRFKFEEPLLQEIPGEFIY

STK25 (human) = STK25 (human) (UniProt O00506)
CSNK2A1 (human) = CSNK2A1 (human) (UniProt P68400)
LRRK2 (human) = LRRK2 (human) (UniProt Q5S007)
GRK7 (human) = GRK7 (human) (UniProt Q8WTQ7)
ACVR2B (human) = ACVR2B (human) (UniProt Q13705)
CDKL3 (human) = CDKL3 (human) (UniProt Q8IVW4)
MAP4K1 (human) = MAP4K1 (human) (UniProt Q92918)
SRC (human) = SRC (human) (UniProt P12931)
TEC (human) = TEC (human) (UniProt P42680)
BMPR2 (human) = BMPR2 (human) (UniProt Q13873)
CLK1 (human) = CLK1 (human) (UniProt P49759)

Chain of MAPK12 (human) (P53778 whole entry, looked up): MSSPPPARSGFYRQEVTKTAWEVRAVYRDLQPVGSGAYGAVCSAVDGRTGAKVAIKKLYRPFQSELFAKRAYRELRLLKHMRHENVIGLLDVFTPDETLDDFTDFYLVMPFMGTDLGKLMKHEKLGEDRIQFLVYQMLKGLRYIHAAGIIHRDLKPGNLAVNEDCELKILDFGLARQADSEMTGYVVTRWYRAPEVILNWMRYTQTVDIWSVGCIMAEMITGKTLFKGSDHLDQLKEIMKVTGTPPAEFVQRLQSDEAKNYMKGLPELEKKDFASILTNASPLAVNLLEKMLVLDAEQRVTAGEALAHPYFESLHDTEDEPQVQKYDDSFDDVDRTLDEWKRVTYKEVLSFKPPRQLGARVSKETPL

Row | SMILES | kinase still bound, per cent of control (SIK2 (human)) | kinase still bound, per cent of control (NIM1 (human)) | kinase still bound, per cent of control (MAPK12 (human)) | kinase still bound, per cent of control (MAST1 (human)) | kinase still bound, per cent of control (FGFR2 (human)) | kinase still bound, per cent of control (PIP4K2C (human)) | kinase still bound, per cent of control (STK33 (human)) | kinase still bound, per cent of control (CSNK1D (human)) | kinase still bound, per cent of control (SYK (human)) | kinase still bound, per cent of control (TNNI3K (human)) | kinase still bound, per cent of control (FYN (human)) | kinase still bound, per cent of control (PRKACB (human)) | kinase still bound, per cent of control (DCLK2 (human)) | kinase still bound, per cent of control (WEE2 (human)) | kinase still bound, per cent of control (AXL (human)) | kinase still bound, per cent of control (PLK2 (human)) | kinase still bound, per cent of control (ULK3 (human)) | kinase still bound, per cent of control (PIK3C2B (human)) | kinase still bound, per cent of control (ERBB3 (human)) | kinase still bound, per cent of control (TESK1 (human)) | other results
1 | CCCS(=O)(=O)Nc1ccc(F)c(C(=O)c2c[nH]c3ncc(Cl)cc23)c1F | 84% | 92% | 100% | 100% | 59% | 100% | 85% | 91% | 100% | 75% | 11% | 100% | 61% | 100% | 40% | 83% | 60% | 84% | 28% | 13% | kinase still bound, per cent of control (PTK6 (human)): 0.5%; kinase still bound, per cent of control (MYO3B (human)): 47%; kinase still bound, per cent of control [1]: 38%; kinase still bound, per cent of control (MAP3K13 (human)): 100%; kinase still bound, per cent of control (CHEK2 (human)): 64%; kinase still bound, per cent of control (MST1R (human)): 100%; kinase still bound, per cent of control (HIPK3 (human)): 46%; kinase still bound, per cent of control (PRKAA2 (human)): 46%; kinase still bound, per cent of control (STK17A (human)): 44%; kinase still bound, per cent of control (STK25 (human)): 53%; kinase still bound, per cent of control (CSNK2A1 (human)): 18%; kinase still bound, per cent of control (LRRK2 (human)): 37%; kinase still bound, per cent of control (GRK7 (human)): 76%; kinase still bound, per cent of control (ACVR2B (human)): 28%; kinase still bound, per cent of control (CDKL3 (human)): 100%; kinase still bound, per cent of control (MAP4K1 (human)): 70%; kinase still bound, per cent of control (SRC (human)): 9.2%; kinase still bound, per cent of control (TEC (human)): 100%; kinase still bound, per cent of control (BMPR2 (human)): 67%
2 | CNC(=O)Nc1ccc(-c2nc(N3CC4CCC(C3)O4)c3cnn(C4CCC5(CC4)OCCO5)c3n2)cc1 | 97% | 100% | 54% | 95% | 92% | 100% | 82% | 92% | 100% | 59% | 70% | 87% | 97% | 100% | 88% | 100% | 92% | 25% | 100% | 80% | kinase still bound, per cent of control (CLK1 (human)): 29%; kinase still bound, per cent of control (PTK6 (human)): 55%; kinase still bound, per cent of control (MYO3B (human)): 91%; kinase still bound, per cent of control [1]: 65%; kinase still bound, per cent of control (MAP3K13 (human)): 82%; kinase still bound, per cent of control (CHEK2 (human)): 84%; kinase still bound, per cent of control (MST1R (human)): 100%; kinase still bound, per cent of control (HIPK3 (human)): 42%; kinase still bound, per cent of control (PRKAA2 (human)): 93%; kinase still bound, per cent of control (STK17A (human)): 100%; kinase still bound, per cent of control (STK25 (human)): 91%; kinase still bound, per cent of control (CSNK2A1 (human)): 80%; kinase still bound, per cent of control (LRRK2 (human)): 82%; kinase still bound, per cent of control (GRK7 (human)): 91%; kinase still bound, per cent of control (ACVR2B (human)): 77%; kinase still bound, per cent of control (CDKL3 (human)): 95%; kinase still bound, per cent of control (MAP4K1 (human)): 94%; kinase still bound, per cent of control (SRC (human)): 75%; kinase still bound, per cent of control (TEC (human)): 84%; kinase still bound, per cent of control (BMPR2 (human)): 83%
3 | COc1cc2c(Nc3ccc(NC(=O)c4ccccc4)cc3)ncnc2cc1OCCCN1CCOCC1 | 63% | 100% | 49% | 100% | 89% | 53% | 67% | 71% | 69% | 94% | 55% | 100% | 100% | 100% | 1.8% | 100% | 7.3% | 100% | 1% | 59% | kinase still bound, per cent of control (CLK1 (human)): 100%; kinase still bound, per cent of control (PTK6 (human)): 0.8%; kinase still bound, per cent of control (MYO3B (human)): 100%; kinase still bound, per cent of control [1]: 100%; kinase still bound, per cent of control (MAP3K13 (human)): 27%; kinase still bound, per cent of control (CHEK2 (human)): 100%; kinase still bound, per cent of control (MST1R (human)): 3.9%; kinase still bound, per cent of control (HIPK3 (human)): 52%; kinase still bound, per cent of control (PRKAA2 (human)): 72%; kinase still bound, per cent of control (STK17A (human)): 100%; kinase still bound, per cent of control (STK25 (human)): 63%; kinase still bound, per cent of control (CSNK2A1 (human)): 87%; kinase still bound, per cent of control (LRRK2 (human)): 73%; kinase still bound, per cent of control (GRK7 (human)): 71%; kinase still bound, per cent of control (ACVR2B (human)): 100%; kinase still bound, per cent of control (CDKL3 (human)): 100%; kinase still bound, per cent of control (MAP4K1 (human)): 60%; kinase still bound, per cent of control (SRC (human)): 32%; kinase still bound, per cent of control (TEC (human)): 76%; kinase still bound, per cent of control (BMPR2 (human)): 81%
